# Reference: patent US20240116985A1, “STAPLED PEPTIDES AND METHODS THEREOF” (priority 2020, published 2024)
# What was measured:
# [1] = target: T1, full-length beta-Catenin (Uniprot ID P35222) (Homo sapiens, UniProt P35222); test: Fluorescence polarization IC50 (beta-catenin / 5FAM-TCF4 10-53 competition); assay type: binding; conditions: fluorescence polarization; read-out: beta-Catenin FP IC50
# T1 construct: 10 nM full-length beta-Catenin (Uniprot ID P35222)
# T1 sequence (P35222 1-781): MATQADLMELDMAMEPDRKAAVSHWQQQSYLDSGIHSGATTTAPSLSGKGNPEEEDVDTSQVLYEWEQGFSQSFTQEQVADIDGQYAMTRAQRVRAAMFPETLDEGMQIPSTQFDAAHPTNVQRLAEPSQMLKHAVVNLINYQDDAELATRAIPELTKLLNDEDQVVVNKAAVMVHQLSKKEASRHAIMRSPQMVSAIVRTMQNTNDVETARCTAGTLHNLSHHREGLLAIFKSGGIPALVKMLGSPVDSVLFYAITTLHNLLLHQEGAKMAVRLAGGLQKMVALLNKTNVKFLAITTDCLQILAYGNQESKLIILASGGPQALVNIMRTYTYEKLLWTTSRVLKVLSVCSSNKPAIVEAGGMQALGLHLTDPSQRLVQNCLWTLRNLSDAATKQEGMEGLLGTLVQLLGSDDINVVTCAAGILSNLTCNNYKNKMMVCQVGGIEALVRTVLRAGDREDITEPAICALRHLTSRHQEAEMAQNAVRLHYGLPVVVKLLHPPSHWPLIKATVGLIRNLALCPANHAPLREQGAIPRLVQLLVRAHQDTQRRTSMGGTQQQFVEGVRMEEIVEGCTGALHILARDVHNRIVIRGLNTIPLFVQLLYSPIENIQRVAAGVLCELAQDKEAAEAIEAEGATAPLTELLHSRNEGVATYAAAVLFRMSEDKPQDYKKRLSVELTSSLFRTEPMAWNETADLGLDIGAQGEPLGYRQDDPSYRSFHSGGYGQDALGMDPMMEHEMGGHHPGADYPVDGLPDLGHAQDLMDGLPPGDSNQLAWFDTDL
# [2] = target: T2, beta-catenin/TCF4 engagement (Homo sapiens, UniProt P35222); test: Nano-BRET target engagement assay (B-cat-Halo & TCF4-Luc in HEK293 cells); assay type: cell-based; conditions: absolute IC50; read-out: NanoBRET Abs IC50
# T2 construct: expressed in transfected cells; host or cells: HEK293
# T2 sequence (P35222 1-781): T1 sequence (P35222 1-781)
Compound,IC50 [1] [µM],IC50 [2] [µM]
"CC(=O)N1CCC[C@]12CC=CCCCC1(CCCC=CCCCOC(=O)N3CC[C@@](C(=O)N[C@@H](Cc4ccccc4C(F)(F)F)C(=O)N[C@@H](Cc4csc5ccccc45)C(=O)N[C@@H](CCC(=O)N(C)C)C(N)=O)(C3)NC(=O)[C@H](Cc3ccccc3)NC(=O)[C@H](Cc3ccccc3)NC(=O)[C@H](C)NC(=O)[C@H](C)NC(=O)[C@H](Cc3cccc(C(=O)O)c3)NC(=O)[C@H](CC(=O)O)NC1=O)NC(=O)[C@H](CC(C)(C)C)NC(=O)[C@H](CC(=O)O)NC2=O (stereo partly drawn) [I-2534, Ac-PL3-Asp-Npg-B5-Asp-3COOHF-Ala-Ala-Phe-Phe-PyrS2-2F3MeF-BztA-Me2Gln-NH2]",0.021,4.4
"CC(=O)N1CCC[C@]12CC=CCCCC1(CCCC=CCCCOC(=O)N3CC[C@@](C(=O)N[C@@H](Cc4ccccc4C(F)(F)F)C(=O)N[C@@H](Cc4csc5ccccc45)C(=O)N[C@@H](CCC(=O)N(C)C)C(N)=O)(C3)NC(=O)[C@H](CCC(=O)N3CCOCC3)NC(=O)[C@H](Cc3ccccc3)NC(=O)[C@H](C)NC(=O)[C@H](C)NC(=O)[C@H](Cc3cccc(C(=O)O)c3)NC(=O)[C@H](CC(=O)O)NC1=O)NC(=O)[C@H](CC(C)(C)C)NC(=O)[C@H](CC(=O)O)NC2=O (stereo partly drawn) [I-2537, Ac-PL3-Asp-Npg-B5-Asp-3COOHF-Ala-Ala-Phe-MorphGln-PyrS2-2F3MeF-BztA-Me2Gln-NH2]",0.011,2.9
"CC(=O)N1CCC[C@]12CC=CCCCC1(CCCC=CCCCOC(=O)N3CC[C@@](C(=O)N[C@@H](Cc4ccccc4C(F)(F)F)C(=O)N[C@@H](Cc4csc5ccccc45)C(=O)N[C@@H](CCC(=O)N(C)C)C(N)=O)(C3)NC(=O)[C@H](CCC(=O)N3CCOCC3)NC(=O)[C@H](Cc3ccccc3)NC(=O)[C@H](C)NC(=O)[C@H](C)NC(=O)[C@H](Cc3cccc(C(=O)O)c3)NC(=O)[C@H](CC(=O)O)NC1=O)NC(=O)[C@H](CC(C)(C)C)NC(=O)[C@H](CC(=O)O)NC2=O (stereo partly drawn) [I-2538, Ac-PL3-Asp-Npg-B5-Asp-3COOHF-Ala-Ala-Phe-MorphGln-PyrS2-2F3MeF-BztA-Me2Gln-NH2]",0.014,3.5
"CC(=O)NCCCC[C@@H]1NC(=O)[C@H](Cc2ccccc2)NC(=O)[C@H](C)NC(=O)[C@H](C)NC(=O)[C@H](Cc2cccc(C(=O)O)c2)NC(=O)[C@H](CC(=O)O)NC(=O)C2(CCCC=CCCCOC(=O)N3CC[C@@](C(=O)N[C@@H](Cc4ccccc4C(F)(F)F)C(=O)N[C@@H](Cc4csc5ccccc45)C(=O)N[C@@H](CCC(=O)N(C)C)C(N)=O)(C3)NC1=O)CCCC=CC[C@]1(CCCN1C(C)=O)C(=O)N[C@@H](CC(=O)O)C(=O)N[C@@H](CC(C)(C)C)C(=O)N2 (stereo partly drawn) [I-2539, Ac-PL3-Asp-Npg-B5-Asp-3COOHF-Ala-Ala-Phe-AcLys-PyrS2-2F3MeF-BztA-Me2Gln-NH2]",0.011,3.6
"CC(=O)N1CCC[C@]12CC=CCCCC1(CCCC=CCCCOC(=O)N3CC[C@@](C(=O)N[C@@H](Cc4ccccc4C(F)(F)F)C(=O)N[C@@H](Cc4csc5ccccc45)C(=O)N[C@@H](CCC(=O)N4CCOCC4)C(N)=O)(C3)NC(=O)[C@H](Cc3ccccc3)NC(=O)[C@H](Cc3ccccc3)NC(=O)[C@H](C)NC(=O)[C@H](C)NC(=O)[C@H](Cc3cccc(C(=O)O)c3)NC(=O)[C@H](CC(=O)O)NC1=O)NC(=O)[C@H](CC(C)(C)C)NC(=O)[C@H](CC(=O)O)NC2=O (stereo partly drawn) [I-2543, Ac-PL3-Asp-Npg-B5-Asp-3COOHF-Ala-Ala-Phe-Phe-PyrS2-2F3MeF-BztA-MorphGln-NH2]",0.037,7.3
"CC(=O)N1CCC[C@]12CC=CCCCC1(CCCC=CCCCOC(=O)N3CC[C@@](C(=O)N[C@@H](Cc4ccccc4C(F)(F)F)C(=O)N[C@@H](Cc4csc5ccccc45)C(=O)N[C@@H](CCC(=O)N4CCOCC4)C(N)=O)(C3)NC(=O)[C@H](CCC(=O)N(C)C)NC(=O)[C@H](Cc3ccccc3)NC(=O)[C@H](C)NC(=O)[C@H](C)NC(=O)[C@H](Cc3cccc(C(=O)O)c3)NC(=O)[C@H](CC(=O)O)NC1=O)NC(=O)[C@H](CC(C)(C)C)NC(=O)[C@H](CC(=O)O)NC2=O (stereo partly drawn) [I-2544, Ac-PL3-Asp-Npg-B5-Asp-3COOHF-Ala-Ala-Phe-Me2Gln-PyrS2-2F3MeF-BztA-MorphGln-NH2]",0.011,4.1
"CC(=O)N1CCC[C@]12CC=CCCCC1(CCCC=CCCCOC(=O)N3CC[C@@](C(=O)N[C@@H](Cc4ccccc4C(F)(F)F)C(=O)N[C@@H](Cc4csc5ccccc45)C(=O)N[C@@H](CCC(=O)N4CCOCC4)C(N)=O)(C3)NC(=O)[C@H](CCC(=O)N3CCOCC3)NC(=O)[C@H](Cc3ccccc3)NC(=O)[C@H](C)NC(=O)[C@H](C)NC(=O)[C@H](Cc3cccc(C(=O)O)c3)NC(=O)[C@H](CC(=O)O)NC1=O)NC(=O)[C@H](CC(C)(C)C)NC(=O)[C@H](CC(=O)O)NC2=O (stereo partly drawn) [I-2546, Ac-PL3-Asp-Npg-B5-Asp-3COOHF-Ala-Ala-Phe-MorphGln-PyrS2-2F3MeF-BztA-MorphGln-NH2]",0.013,3.5

# The remaining compounds from weak to strong by IC50 [1], led by results:
IC50 [1] [µM],IC50 [2] [µM],Compound
0.016,4,"CC(=O)N1CCC[C@]12CC=CCCCC1(CCCC=CCCCOC(=O)N3CC[C@@](C(=O)N[C@@H](Cc4ccccc4C(F)(F)F)C(=O)N[C@@H](Cc4csc5ccccc45)C(=O)N[C@@H](CCC(=O)N4CCOCC4)C(N)=O)(C3)NC(=O)[C@H](CCC(=O)N(C)C)NC(=O)[C@H](Cc3ccccc3)NC(=O)[C@H](C)NC(=O)[C@H](C)NC(=O)[C@H](Cc3cccc(C(=O)O)c3)NC(=O)[C@H](CC(=O)O)NC1=O)NC(=O)[C@H](CC(C)(C)C)NC(=O)[C@H](CC(=O)O)NC2=O (stereo partly drawn) [I-2545, Ac-PL3-Asp-Npg-B5-Asp-3COOHF-Ala-Ala-Phe-Me2Gln-PyrS2-2F3MeF-BztA-MorphGln-NH2]"
0.014,3.5,"CC(=O)NCCCC[C@@H]1NC(=O)[C@H](Cc2ccccc2)NC(=O)[C@H](C)NC(=O)[C@H](C)NC(=O)[C@H](Cc2cccc(C(=O)O)c2)NC(=O)[C@H](CC(=O)O)NC(=O)C2(CCCC=CCCCOC(=O)N3CC[C@@](C(=O)N[C@@H](Cc4ccccc4C(F)(F)F)C(=O)N[C@@H](Cc4csc5ccccc45)C(=O)N[C@@H](CCC(=O)N(C)C)C(N)=O)(C3)NC1=O)CCCC=CC[C@]1(CCCN1C(C)=O)C(=O)N[C@@H](CC(=O)O)C(=O)N[C@@H](CC(C)(C)C)C(=O)N2 (stereo partly drawn) [I-2540, Ac-PL3-Asp-Npg-B5-Asp-3COOHF-Ala-Ala-Phe-AcLys-PyrS2-2F3MeF-BztA-Me2Gln-NH2]"
0.013,4.5,"CC(=O)N1CCC[C@]12CC=CCCCC1(CCCC=CCCCOC(=O)N3CC[C@@](C(=O)N[C@@H](Cc4ccccc4C(F)(F)F)C(=O)N[C@@H](Cc4csc5ccccc45)C(=O)N[C@@H](CCC(=O)N(C)C)C(N)=O)(C3)NC(=O)[C@H](CCC(=O)N(C)C)NC(=O)[C@H](Cc3ccccc3)NC(=O)[C@H](C)NC(=O)[C@H](C)NC(=O)[C@H](Cc3cccc(C(=O)O)c3)NC(=O)[C@H](CC(=O)O)NC1=O)NC(=O)[C@H](CC(C)(C)C)NC(=O)[C@H](CC(=O)O)NC2=O (stereo partly drawn) [I-2536, Ac-PL3-Asp-Npg-B5-Asp-3COOHF-Ala-Ala-Phe-Me2Gln-PyrS2-2F3MeF-BztA-Me2Gln-NH2]"
0.011,3.7,"CC(=O)N1CCC[C@]12CC=CCCCC1(CCCC=CCCCOC(=O)N3CC[C@@](C(=O)N[C@@H](Cc4ccccc4C(F)(F)F)C(=O)N[C@@H](Cc4csc5ccccc45)C(=O)N[C@@H](CCC(=O)N(C)C)C(N)=O)(C3)NC(=O)[C@H](CCC(=O)N(C)C)NC(=O)[C@H](Cc3ccccc3)NC(=O)[C@H](C)NC(=O)[C@H](C)NC(=O)[C@H](Cc3cccc(C(=O)O)c3)NC(=O)[C@H](CC(=O)O)NC1=O)NC(=O)[C@H](CC(C)(C)C)NC(=O)[C@H](CC(=O)O)NC2=O (stereo partly drawn) [I-2535, Ac-PL3-Asp-Npg-B5-Asp-3COOHF-Ala-Ala-Phe-Me2Gln-PyrS2-2F3MeF-BztA-Me2Gln-NH2]"
